Measurements: PMC7614683, “A small molecule PI3Kα activator for cardioprotection and neuroregeneration” (Nature, 2023)

Key:
PI3Kα-KO MEFs = test: pAKT S473 western blot, PI3Kα-KO MEFs; assay type: cell-based, mouse; conditions: 15 min
Experimental: Unless otherwise indicated, western blotting was performed with ECL detection. For time course studies, A549 cells were seeded at 250,000 cells per well in 6-well plates in RPMI (10% FBS + 1 mM Na-Pyruvate + 1% P/S) and allowed to adhere overnight. The next day they were serum-starved for 4 h prior to treatment with 100 nM insulin or 5 μM 1938, for the indicated time (5 min to 48 h) at 37°C, 5% CO2. For 1938 titration assays in MEFs, cells were seeded at 150,000 cells per well in 6-well plates and allowed to adhere overnight. The next day they were serum-starved for 4 h prior to treatment with insulin (1 μM), 1938 (0.2 to 30 μM, final DMSO concentration of 1.5%) or inhibitors (final DMSO concentration of ≤1.5%) for 15 min at 37°C, 5% CO2. Cells were washed twice with cold PBS and lysed using cold RIPA buffer (25 mM Tris.HCl pH 7.6, 150 mM NaCl, 1% NP-40, 1% sodium deoxycholate, 0.1% SDS supplemented with protease/phosphatase inhibitor cocktail from Merck). To remove cell debris, homogenates were spun at 13,000 rpm for 15 min at 4°C and the supernatant fraction recovered. Protein concentration was determined by colorimetric assay (BCA assay, Promega). Protein extracts were resolved by SDS-PAGE, transferred to nitrocellulose membranes, and incubated overnight at 4°C with specific antibodies as follows: anti-vinculin (Sigma #V9131) and the following antibodies from Cell Signaling Technology (CST): pAKT-S473 (CST #9271), pS6-S240/244 (CST #2215), pPRAS40-T246 (CST #2640) and total S6 (CST #2317). Primary ntibodies were used at 1:1000 dilution except anti-vinculin (1:10000). Secondary antibodies are also from Cell Signalling Technology: Anti rabbit IgG, HRP linked Antibody (CST #7074S), Anti mouse IgG, HRP linked Antibody (CST #7076S). Raw and uncropped blots are shown in Supplementary Fig. 1.

PI3Kα-WT MEFs = test: Mass spectrometry-based phosphoproteomics, PI3Kα-WT MEFs; assay type: cell-based, mouse; conditions: for number of differentially phosphorylated peptides/sites relative to DMSO: 1938 5 μM or insulin 100 nM
Experimental: PI3Kα-WT and PI3Kα-KO MEFs, grown in 15 cm dishes, were serum-starved overnight in DMEM with 1% penicillin-streptomycin and stimulated by the addition of 0.05% DMSO, 5 μM 1938 in final 0.05% DMSO or 100 nM insulin (Sigma #I5016) for 15 min or 4 h. Cells were lysed in 500 μl urea lysis buffer [50 mM triethylammonium bicarbonate, 8 M urea, cOmplete™ EDTA-free protease inhibitor cocktail (1:50 dilution) (Roche #11873580001), 1 PhosSTOP tablet (Roche #4906845001) per 10 ml of lysis buffer, 1 mM sodium orthovanadate] and lysates sonicated until clear for ~10 min with cooling breaks on ice. Protein concentration was measured using a BCA protein assay (Pierce #23227). 300 μg of protein was reduced with 5 mM Tris(2-carboxyethyl)phosphine hydrochloride (Sigma #C4706) at 37°C for 20 min and alkylated using 10 mM 2-chloroacetamide (Sigma #22790) for 20 min at room temperature in the dark. Proteins were digested with LysC (#129-02541; FUJIFILM Wako Chemicals, Osaka, Japan) for 3.5 h at 30°C. Samples were then diluted with 50 mM triethylammonium bicarbonate (Sigma #T7408) to reduce the urea concentration to 1.5 M, followed by an overnight peptide digestion with trypsin (Promega #V5113) at 37°C. Digest reactions were quenched by the addition of 10% trifluoroacetic acid (EMD Millipore #302031-M) to a final pH of 2.0. Sample desalting was performed using 35-350 μg C18 columns (HMM S18V; The Nest Group, Inc., Southborough, MA, USA) according to the manufacturer’ specifications. TiO2 (Hichrome Titansphere TiO2, 10 μm capacity, 100 mg, GL Sciences #5020-75010) was used for phosphoenrichment. Following peptide loading onto TiO2, the beads were sequentially washed with 1 M glycolic acid (Sigma #124737)/80% acetonitrile/5% trifluoroacetic acid, followed by 80% acetonitrile/0.2% trifluoroacetic acid and 20% acetonitrile before elution with 5% ammonium hydroxide. Enriched samples were desalted using 7-70 μg C18 columns (HUM S18V; The Nest Group, Inc., Southborough, MA, USA) according to the manufacturer’s specifications. Dried phosphopeptide samples were stored at -80°C and resuspended in 10% formic acid immediately prior to analysis. nLC-MS/MS was performed on a Q-Exactive Orbitrap Plus interfaced to a NANOSPRAY FLEX ion source and coupled to an Easy-nLC 1000 (Thermo Scientific). Fifty percent of each sample was analysed as 10 μl injections. Peptides were separated on a 27 cm fused silica emitter, 75 μm diameter, packed in-house with Reprosil-Pur 200 C18-AQ, 2.4 μm resin (Dr. Maisch, Ammerbuch-Entringen, Germany) using a linear gradient from 5% to 30% acetonitrile/0.1% formic acid over 180 min, at a flow rate of 250 nl/min. Peptides were ionised by electrospray ionisation using 1.9 kV applied immediately prior to the analytical column via a microtee built into the nanospray source with the ion transfer tube heated to 320°C and the S-lens set to 60%. Precursor ions were measured in a data-dependent mode in the orbitrap analyser at a resolution of 70,000 and a target value of 3e6 ions. The ten most intense ions from each MS1 scan were isolated, fragmented in the HCD cell, and measured in the Orbitrap at a resolution of 17,500.
Raw data were analysed with MaxQuant[72] (version 1.5.5.1) where they were searched against the mouse UniProt database (http://www.uniprot.org/, downloaded 04/12/2018) using default settings. Carbamidomethylation of cysteines was set as fixed modification, and oxidation of methionines, acetylation at protein N-termini, phosphorylation (on S, T or Y) were set as variable modifications. Enzyme specificity was set to trypsin with maximally 2 missed cleavages allowed. To ensure high confidence identifications, peptide-spectral matches, peptides, and proteins were filtered at a less than 1% false discovery rate (FDR). Label-free quantification in MaxQuant was used with a LFQ minimum ratio count of 2, Fast LFQ selected and the ‘skip normalisation’ option selected. […]

Molecule: CCN1CCN(c2ccc(Nc3cc(Nc4cccc5c4N(C(C)=O)CC5)ccn3)cc2)CC1 [Compound 1938]
- pAKT^S473 induction (PI3Kα-KO MEFs): no pAKT^S473 signal
- number of differentially phosphorylated peptides/sites relative to DMSO (PI3Kα-WT MEFs; 15 min): 27
- number of differentially phosphorylated peptides/sites relative to DMSO (PI3Kα-WT MEFs; 4h): 50
- log2FC, PI3Ka WT 4 h 1938 vs PI3Ka WT DMSO (PI3Kα-WT MEFs; phosphosite Cask_S544): Inf
- log2FC, PI3Ka WT 15’ 1938 vs PI3Ka WT DMSO (PI3Kα-WT MEFs; phosphosite Cask_S545): -0.1674
- log2FC, PI3Ka WT 4 h 1938 vs PI3Ka WT DMSO (PI3Kα-WT MEFs; phosphosite Cask_S545): -0.01008
- log2FC, PI3Ka WT 15’ 1938 vs PI3Ka WT DMSO (PI3Kα-WT MEFs; phosphosite Gm42715_S1683): 1.032
- log2FC, PI3Ka WT 4 h 1938 vs PI3Ka WT DMSO (PI3Kα-WT MEFs; phosphosite Gm42715_S1683): 0.9181

Molecule: insulin: insulin, canonical activator of PI3Kα, used as positive control
- pAKT^S473 induction (PI3Kα-KO MEFs): still respond to insulin
- number of differentially phosphorylated peptides/sites relative to DMSO (PI3Kα-WT MEFs; 15 min): 11
- number of differentially phosphorylated peptides/sites relative to DMSO (PI3Kα-WT MEFs; 4h): 18
- log2FC, PI3Ka WT 15’ Insulin vs PI3Ka WT DMSO (PI3Kα-WT MEFs; phosphosite Cask_S545): -0.06497
- log2FC, PI3Ka WT 4 h Insulin vs PI3Ka WT DMSO (PI3Kα-WT MEFs; phosphosite Cask_S545): -0.07238
- log2FC, PI3Ka WT 15’ Insulin vs PI3Ka WT DMSO (PI3Kα-WT MEFs; phosphosite Gm42715_S1683): 0.5546
- log2FC, PI3Ka WT 4 h Insulin vs PI3Ka WT DMSO (PI3Kα-WT MEFs; phosphosite Gm42715_S1683): 1.083
